Source: patent publication US20250275540A1, “USE OF PROTOPORPHYRINOGEN OXIDASE” (BEIJING DABEINONG BIOTECHNOLOGY CO., LTD., priority 2022, published 2025)

Tested on: transgenic soybean plants
Assay: Detection of the herbicide tolerance of the transgenic soybean plants
Assay type: in vivo
Conditions: for The grade of pesticide damage/plant: 0 / The grade of pesticide damage/plant: 1 / The grade of pesticide damage/plant: 2 / The grade of pesticide damage/plant: 3: 7 DAT
[1] = genotype Control vector, 120 g ai/ha
[2] = genotype Control vector, 240 g ai/ha
[3] = genotype PPO-AP-01, 120 g ai/ha
[4] = genotype PPO-AP-01, 240 g ai/ha
[5] = genotype PPO-EC-01, 120 g ai/ha
[6] = genotype PPO-EC-01, 240 g ai/ha

C#CCN1C(=O)COc2cc(F)c(N3C(=O)C4=C(CCCC4)C3=O)cc21 [flumioxazin, 2-[7-fluoro-3,4-dihydro-3-oxo-4-(2-propynyl)-2H-1,4-benzoxazin-6-yl]-4,5,6,7-tetrahydro-1H-isoindole-1,3(2H)-dione]
The grade of pesticide damage/plant: 0 (genotype CK, 120 g ai/ha): 0 plant | The grade of pesticide damage/plant: 1 (genotype CK, 120 g ai/ha): 0 plant | The grade of pesticide damage/plant: 2 (genotype CK, 120 g ai/ha): 0 plant | The grade of pesticide damage/plant: 3 (genotype CK, 120 g ai/ha): 16 plant | The grade of pesticide damage/plant: 0 (genotype CK, 240 g ai/ha): 0 plant | The grade of pesticide damage/plant: 1 (genotype CK, 240 g ai/ha): 0 plant | The grade of pesticide damage/plant: 2 (genotype CK, 240 g ai/ha): 0 plant | The grade of pesticide damage/plant: 3 (genotype CK, 240 g ai/ha): 16 plant | The grade of pesticide damage/plant: 0 [1]: 0 plant | The grade of pesticide damage/plant: 1 [1]: 0 plant | The grade of pesticide damage/plant: 2 [1]: 0 plant | The grade of pesticide damage/plant: 3 [1]: 16 plant | The grade of pesticide damage/plant: 0 [2]: 0 plant | The grade of pesticide damage/plant: 1 [2]: 0 plant | The grade of pesticide damage/plant: 2 [2]: 0 plant | The grade of pesticide damage/plant: 3 [2]: 16 plant | The grade of pesticide damage/plant: 0 [3]: 0 plant | The grade of pesticide damage/plant: 1 [3]: 0 plant | The grade of pesticide damage/plant: 2 [3]: 0 plant | The grade of pesticide damage/plant: 3 [3]: 16 plant | The grade of pesticide damage/plant: 0 [4]: 0 plant | The grade of pesticide damage/plant: 1 [4]: 0 plant | The grade of pesticide damage/plant: 2 [4]: 0 plant | The grade of pesticide damage/plant: 3 [4]: 16 plant | tolerance to the herbicide (in words) (genotype PPO-AP-01, at different concentrations): no flumioxazin tolerance | The grade of pesticide damage/plant: 0 [5]: 16 plant | The grade of pesticide damage/plant: 1 [5]: 0 plant | The grade of pesticide damage/plant: 2 [5]: 0 plant | The grade of pesticide damage/plant: 3 [5]: 0 plant | The grade of pesticide damage/plant: 0 [6]: 15 plant | The grade of pesticide damage/plant: 1 [6]: 1 plant | The grade of pesticide damage/plant: 2 [6]: 0 plant | The grade of pesticide damage/plant: 3 [6]: 0 plant | The grade of pesticide damage/plant: 0 (genotype PPOA-01, 120 g ai/ha): 16 plant | The grade of pesticide damage/plant: 1 (genotype PPOA-01, 120 g ai/ha): 0 plant | The grade of pesticide damage/plant: 2 (genotype PPOA-01, 120 g ai/ha): 0 plant | The grade of pesticide damage/plant: 3 (genotype PPOA-01, 120 g ai/ha): 0 plant | The grade of pesticide damage/plant: 0 (genotype PPOA-01, 240 g ai/ha): 14 plant | The grade of pesticide damage/plant: 1 (genotype PPOA-01, 240 g ai/ha): 2 plant | The grade of pesticide damage/plant: 2 (genotype PPOA-01, 240 g ai/ha): 0 plant | The grade of pesticide damage/plant: 3 (genotype PPOA-01, 240 g ai/ha): 0 plant | The grade of pesticide damage/plant: 0 (genotype PPOB-01, 120 g ai/ha): 16 plant | The grade of pesticide damage/plant: 1 (genotype PPOB-01, 120 g ai/ha): 0 plant | The grade of pesticide damage/plant: 2 (genotype PPOB-01, 120 g ai/ha): 0 plant | The grade of pesticide damage/plant: 3 (genotype PPOB-01, 120 g ai/ha): 0 plant | The grade of pesticide damage/plant: 0 (genotype PPOB-01, 240 g ai/ha): 15 plant | The grade of pesticide damage/plant: 1 (genotype PPOB-01, 240 g ai/ha): 1 plant | The grade of pesticide damage/plant: 2 (genotype PPOB-01, 240 g ai/ha): 0 plant | The grade of pesticide damage/plant: 3 (genotype PPOB-01, 240 g ai/ha): 0 plant | The grade of pesticide damage/plant: 0 (genotype PPOC-01, 120 g ai/ha): 16 plant | The grade of pesticide damage/plant: 1 (genotype PPOC-01, 120 g ai/ha): 0 plant | The grade of pesticide damage/plant: 2 (genotype PPOC-01, 120 g ai/ha): 0 plant | The grade of pesticide damage/plant: 3 (genotype PPOC-01, 120 g ai/ha): 0 plant | The grade of pesticide damage/plant: 0 (genotype PPOC-01, 240 g ai/ha): 16 plant | The grade of pesticide damage/plant: 1 (genotype PPOC-01, 240 g ai/ha): 0 plant | The grade of pesticide damage/plant: 2 (genotype PPOC-01, 240 g ai/ha): 0 plant | The grade of pesticide damage/plant: 3 (genotype PPOC-01, 240 g ai/ha): 0 plant | The grade of pesticide damage/plant: 0 (genotype PPOD-01, 120 g ai/ha): 16 plant | The grade of pesticide damage/plant: 1 (genotype PPOD-01, 120 g ai/ha): 0 plant | The grade of pesticide damage/plant: 2 (genotype PPOD-01, 120 g ai/ha): 0 plant | The grade of pesticide damage/plant: 3 (genotype PPOD-01, 120 g ai/ha): 0 plant | The grade of pesticide damage/plant: 0 (genotype PPOD-01, 240 g ai/ha): 16 plant | The grade of pesticide damage/plant: 1 (genotype PPOD-01, 240 g ai/ha): 0 plant | The grade of pesticide damage/plant: 2 (genotype PPOD-01, 240 g ai/ha): 0 plant | The grade of pesticide damage/plant: 3 (genotype PPOD-01, 240 g ai/ha): 0 plant | The grade of pesticide damage/plant: 0 (genotype PPOE-01, 120 g ai/ha): 16 plant | The grade of pesticide damage/plant: 1 (genotype PPOE-01, 120 g ai/ha): 0 plant | The grade of pesticide damage/plant: 2 (genotype PPOE-01, 120 g ai/ha): 0 plant | The grade of pesticide damage/plant: 3 (genotype PPOE-01, 120 g ai/ha): 0 plant | The grade of pesticide damage/plant: 0 (genotype PPOE-01, 240 g ai/ha): 15 plant | The grade of pesticide damage/plant: 1 (genotype PPOE-01, 240 g ai/ha): 1 plant | The grade of pesticide damage/plant: 2 (genotype PPOE-01, 240 g ai/ha): 0 plant | The grade of pesticide damage/plant: 3 (genotype PPOE-01, 240 g ai/ha): 0 plant | The grade of pesticide damage/plant: 0 (genotype PPOF-01, 120 g ai/ha): 16 plant | The grade of pesticide damage/plant: 1 (genotype PPOF-01, 120 g ai/ha): 0 plant | The grade of pesticide damage/plant: 2 (genotype PPOF-01, 120 g ai/ha): 0 plant | The grade of pesticide damage/plant: 3 (genotype PPOF-01, 120 g ai/ha): 0 plant | The grade of pesticide damage/plant: 0 (genotype PPOF-01, 240 g ai/ha): 14 plant | The grade of pesticide damage/plant: 1 (genotype PPOF-01, 240 g ai/ha): 2 plant | The grade of pesticide damage/plant: 2 (genotype PPOF-01, 240 g ai/ha): 0 plant | The grade of pesticide damage/plant: 3 (genotype PPOF-01, 240 g ai/ha): 0 plant | tolerance to the herbicide (in words) (genotypes PPOA-01 to PPOF-01 and PPO-EC-01, at different concentrations): high-resistant tolerance
